Results from the NIST ThermoML archive (doi:10.1021/je900137r).
± gives the expanded uncertainty stated by the source.

Experiment: molar heat capacity at saturation pressure
Conditions: Liquid, Vacuum adiabatic calorimetry

CCC [propane]
Conditions	molar heat capacity [J/K/mol]
88.92 K	84.87 ± 1.2
91.12 K	84.92 ± 1.2
92.73 K	84.92 ± 1.2
94.89 K	85.02 ± 1.2
96.47 K	84.96 ± 1.2
98.58 K	85.12 ± 1.2
100.13 K	85.19 ± 1.2
102.21 K	85.32 ± 1.2
103.73 K	85.36 ± 1.2
105.78 K	85.44 ± 1.2
107.27 K	85.47 ± 1.2
109.28 K	85.76 ± 1.2
110.76 K	85.79 ± 1.2
112.74 K	85.84 ± 1.2
114.19 K	85.97 ± 1.2
116.15 K	86.05 ± 1.2
117.58 K	86.14 ± 1.2
119.51 K	86.16 ± 1.2
120.93 K	86.45 ± 1.2
122.83 K	86.51 ± 1.2
124.23 K	86.53 ± 1.2
126.12 K	86.66 ± 1.2
127.5 K	86.9 ± 1.2
129.36 K	86.88 ± 1.2
130.73 K	87.09 ± 1.2
132.57 K	87.07 ± 1.2
133.93 K	87.31 ± 1.2
135.75 K	87.22 ± 1.2
137.1 K	87.67 ± 1.2
138.9 K	87.5 ± 1.2
140.23 K	87.61 ± 1.2
142.01 K	87.94 ± 1.2
143.34 K	87.91 ± 1.2
145.1 K	88.06 ± 1.2
146.41 K	88.35 ± 1.2
148.16 K	88.33 ± 1.2
149.46 K	88.44 ± 1.2
151.2 K	88.72 ± 1.3
152.48 K	88.71 ± 1.3
154.21 K	88.83 ± 1.3
155.47 K	89 ± 1.3
157.2 K	89.06 ± 1.3
158.45 K	89.26 ± 1.3
160.15 K	89.66 ± 1.3
161.4 K	89.43 ± 1.3
163.09 K	90.05 ± 1.3
164.34 K	89.53 ± 1.3
166 K	90.04 ± 1.3
167.25 K	90.06 ± 1.3
168.9 K	90.24 ± 1.3
170.14 K	90.37 ± 1.3
171.79 K	90.38 ± 1.3
173.01 K	90.28 ± 1.3
174.65 K	90.89 ± 1.3
175.86 K	90.91 ± 1.3
177.49 K	91.25 ± 1.3
178.7 K	91.17 ± 1.3
180.31 K	91.67 ± 1.3
181.51 K	91.3 ± 1.3
183.12 K	91.84 ± 1.3
184.31 K	91.75 ± 1.3
185.91 K	92.02 ± 1.3
187.09 K	92.23 ± 1.3
188.68 K	92.09 ± 1.3
189.85 K	92.57 ± 1.3
191.44 K	92.72 ± 1.3
192.61 K	92.88 ± 1.3
194.18 K	93.05 ± 1.3
195.34 K	93.67 ± 1.3
196.91 K	93.56 ± 1.3
198.06 K	93.95 ± 1.3
199.62 K	94.02 ± 1.3
200.76 K	94.12 ± 1.3
202.32 K	94.07 ± 1.3
203.45 K	94.68 ± 1.3
205.01 K	94.36 ± 1.3
206.14 K	94.22 ± 1.3
207.69 K	94.92 ± 1.4
208.8 K	94.54 ± 1.3
210.35 K	95.41 ± 1.4
211.45 K	95.58 ± 1.4
213 K	96.05 ± 1.4
214.1 K	96.24 ± 1.4
215.65 K	96.38 ± 1.4
216.73 K	96.69 ± 1.4
218.28 K	97.14 ± 1.4
219.35 K	97.4 ± 1.4
220.9 K	96.94 ± 1.4
221.97 K	97.43 ± 1.4
223.51 K	97.28 ± 1.4
224.57 K	97.58 ± 1.4
226.12 K	98.17 ± 1.4
227.16 K	98.39 ± 1.4
228.72 K	98.66 ± 1.4
229.75 K	98.99 ± 1.4
231.31 K	99.11 ± 1.4
232.33 K	99.49 ± 1.4
233.9 K	99.63 ± 1.4
234.9 K	99.41 ± 1.4
236.47 K	99.64 ± 1.4
237.46 K	100.12 ± 1.4
239.04 K	100.21 ± 1.4
240.02 K	100.5 ± 1.4
241.61 K	100.94 ± 1.4
242.57 K	101.2 ± 1.4
244.17 K	101.8 ± 1.4
245.12 K	101.78 ± 1.4
246.72 K	102.66 ± 1.4
247.66 K	102.27 ± 1.4
249.28 K	103.18 ± 1.5
250.2 K	102.98 ± 1.5
